# Structures can show the parent of a compound that is named as a salt.
# Experiments:
# mexB (PA) strain = test: Combinational effect with antibacterial agent against Pseudomonas aeruginosa (Test Examples 2 and 4): mexB (PA) strain with LVFX, TC or AZT at 1/4 MIC, EC99; assay type: cell-based; conditions: Table 52, Test Example 2, 16 to 20 hours culture, OD595; for EC99, mexB (PA), AZT: combined with AZT at 1/4 MIC; for EC99, mexB (PA), LVFX: combined with LVFX at 1/4 MIC; for EC99, mexB (PA), TC: combined with TC at 1/4 MIC
# Experimental: (§1) The combinational effect of the test compound with the antibacterial agent against Pseudomonas aeruginosa was evaluated.
# For the evaluation of the inhibitory ability against MexAB-OprM, a mutant strain of Pseudomonas aeruginosa in which MexAB-OprM was expressed as a main drug efflux pump (hereinafter, referred to as a “mexB (PA) strain”) was used. LVFX, TC, or AZT was used as the antibacterial agent used in combination.
# The mexB (PA) strain is a strain produced by deleting the genes of MexCD-OprJ, MexEF-OprN, and MexXY in the drug efflux pump of Pseudomonas aeruginosa described in FEMS Microbiology Letters, 2001, Vol. 202, pp. 139 to 143. In the mexB (PA) strain, an expression level of MexB as a drug efflux pump is accelerated.
# TC is a tetracycline-based antibacterial agent and is a drug that is discharged outside the bacteria by MexB. AZT is a monobactam-based antibacterial agent and is a drug that is discharged outside the bacteria by MexB.
# (§2) AMK and GM are aminoglycoside-based antibacterial agents, and are drugs that are not discharged outside the bacteria by MexB but are discharged outside the bacteria by MexY For the culture of each Pseudomonas aeruginosa strain, a 96-well plate (amount of culture medium per well: 100 μL) was used, and cation-adjusted Mueller Hinton broth (CAMHB) was used. The inoculation amount of the bacteria was set to 10^4 to 5 CFU/well.
# (§3) The mexB (PA) strain and the S-3769 strain were cultured for 16 to 20 hours in a culture medium to which each antibacterial agent and test compounds at various concentrations (0 to 800 μM) were added, and the proliferation of the bacterial strains was evaluated by optical turbidity at 595 nm (OD595). The concentration of the antibacterial agent in the culture medium was set to ¼ MIC.
# (§4) The proliferation of bacteria in a case where the test compound and the antibacterial agent were not added was measured, and compared with the proliferation of bacteria in a case where the test compound in a case where the antibacterial agent was added at the concentration of ¼ MIC was contained, and the lowest concentration of the test compound at which the proliferation was inhibited by 99% or more was defined as the drug efflux pump inhibitory ability of the test compound as 99% inhibitory effect concentration (EC99).
# (§5) The effect of suppressing the proliferation of each test compound in combination with an antibacterial agent at ¼ MIC for mexB (PA) or the S-3769 strain was evaluated as follows according to the value of EC99. • S: EC99≤12.5 μM • A: 12.5 μM<EC99≤25 μM • B: 25 μM<EC99≤100 μM • C: 100 μM<EC99
# (§6) The combinational effect of the test compound with the antibacterial agent against Pseudomonas aeruginosa was evaluated in the same manner as in Test Example 2.
# S-3769 strain = test: Combinational effect with antibacterial agent against Pseudomonas aeruginosa (Test Examples 2 and 4): S-3769 strain with AMK or GM at 1/4 MIC, EC99; assay type: cell-based; conditions: Table 52, Test Example 2, 16 to 20 hours culture, OD595; for EC99, S-3769 strain, AMK: combined with AMK at 1/4 MIC; for EC99, S-3769 strain, GM: combined with GM at 1/4 MIC
# Experimental: as §1
# The […] was used for evaluating the inhibitory ability against MexXY-OprM. AMK or GM was used as the antibacterial agent used in combination.
# The S-3769 strain is a clinically isolated strain collected from a domestic medical institution, and is a strain in which the expression level of MexY is accelerated.
# as §2, §3, §4, §5, §6
SMILES,"EC99, mexB (PA), AZT (mexB (PA) strain)","EC99, mexB (PA), LVFX (mexB (PA) strain)","EC99, mexB (PA), TC (mexB (PA) strain)","EC99, S-3769 strain, AMK (S-3769 strain)","EC99, S-3769 strain, GM (S-3769 strain)"
"N[C@@H](C(=O)N1CCN(Cc2cccc3c2OC(F)(F)O3)CC1)C1CCN(CCc2cc(Cl)ccc2-c2ccccc2)CC1 [Example 24, Hydrobromide of (R)-2-amino-2-(1-(2-(4-chloro-[1,1′-biphenyl]-2-yl)ethyl)piperidin-4-yl)-1-(4-((2,2-difluorobenzo[d][1,3]dioxol-4-yl)methyl)piperazin-1-yl)ethan-1-one]",B (25 μM<EC99≤100 μM),B (25 μM<EC99≤100 μM),A (12.5 μM<EC99≤25 μM),B (25 μM<EC99≤100 μM),B (25 μM<EC99≤100 μM)
"CCSc1cccc(F)c1CN1CCN(C(=O)[C@H](N)C2CCN(CCc3cc(Cl)ccc3-c3ccccc3)CC2)CC1 [Example 27, (R)-2-amino-2-(1-(2-(4-chloro-[1,1′-biphenyl]-2-yl)ethyl)piperidin-4-yl)-1-(4-(2-(ethylthio)-6-fluorobenzyl)piperazin-1-yl)ethan-1-one]",A (12.5 μM<EC99≤25 μM),A (12.5 μM<EC99≤25 μM),S (EC99≤12.5 μM),S (EC99≤12.5 μM),S (EC99≤12.5 μM)
"CCSc1cc(F)ccc1CN1CCN(C(=O)[C@H](N)C2CCN(CCc3cc(Cl)ccc3-c3ccccc3)CC2)CC1 [Example 30, (R)-2-amino-2-(1-(2-(4-chloro-[1,1′-biphenyl]-2-yl)ethyl)piperidin-4-yl)-1-(4-(2-(ethylthio)-4-fluorobenzyl)piperazin-1-yl)ethan-1-one]",S (EC99≤12.5 μM),S (EC99≤12.5 μM),S (EC99≤12.5 μM),S (EC99≤12.5 μM),S (EC99≤12.5 μM)
"CCOc1ccc(F)c(F)c1CN1CCN(C(=O)[C@H](N)C2CCN(CCc3cc(Cl)ccc3-c3ccccc3)CC2)CC1 [Example 35, Hydrobromide of (R)-2-amino-2-(1-(2-(4-chloro-[1,1′-biphenyl]-2-yl)ethyl)piperidin-4-yl)-1-(4-(6-ethoxy-2,3-difluorobenzyl)piperazin-1-yl)ethan-1-one]",B (25 μM<EC99≤100 μM),C (100 μM<EC99),B (25 μM<EC99≤100 μM),S (EC99≤12.5 μM),S (EC99≤12.5 μM)
"N[C@@H](C(=O)N1CCN(Cc2cccc3c2OCO3)CC1)C1CCN(CCc2cc(Cl)ccc2-c2ccccc2)CC1 [Example 36, Hydrobromide of (R)-2-amino-1-(4-(benzo[d][1,3]dioxol-4-ylmethyl)piperazin-1-yl)-2-(1-(2-(4-chloro-[1,1′-biphenyl]-2-yl)ethyl)piperidin-4-yl) ethan-1-one]",B (25 μM<EC99≤100 μM),C (100 μM<EC99),B (25 μM<EC99≤100 μM),B (25 μM<EC99≤100 μM),B (25 μM<EC99≤100 μM)
"N[C@@H](C(=O)N1CCN(Cc2cccc3c2OCCO3)CC1)C1CCN(CCc2cc(Cl)ccc2-c2ccccc2)CC1 [Example 37, Hydrobromide of (R)-2-amino-2-(1-(2-(4-chloro-[1,1′-biphenyl]-2-yl)ethyl)piperidin-4-yl)-1-(4-((2,3-dihydrobenzo[b] [1,4]dioxin-5-yl)methyl)piperazin-1-yl) ethan-1-one]",B (25 μM<EC99≤100 μM),C (100 μM<EC99),B (25 μM<EC99≤100 μM),B (25 μM<EC99≤100 μM),B (25 μM<EC99≤100 μM)
"N[C@@H](C(=O)N1CCN(Cc2cccc3c2OCC3)CC1)C1CCN(CCc2cc(Cl)ccc2-c2ccccc2)CC1 [Example 38, Hydrobromide of (R)-2-amino-2-(1-(2-(4-chloro-[1,1′-biphenyl]-2-yl)ethyl)piperidin-4-yl)-1-(4-((2,3-dihydrobenzofuran-7-yl)methyl)piperazin-1-yl)ethan-1-one]",A (12.5 μM<EC99≤25 μM),C (100 μM<EC99),B (25 μM<EC99≤100 μM),A (12.5 μM<EC99≤25 μM),A (12.5 μM<EC99≤25 μM)
"N[C@@H](C(=O)N1CCN(Cc2cccc3ccoc23)CC1)C1CCN(CCc2cc(Cl)ccc2-c2ccccc2)CC1 [Example 39, Hydrobromide of (R)-2-amino-1-(4-(benzofuran-7-ylmethyl)piperazin-1-yl)-2-(1-(2-(4-chloro-[1,1′-biphenyl]-2-yl)ethyl)piperidin-4-yl)ethan-1-one]",A (12.5 μM<EC99≤25 μM),B (25 μM<EC99≤100 μM),A (12.5 μM<EC99≤25 μM),A (12.5 μM<EC99≤25 μM),B (25 μM<EC99≤100 μM)
CCOc1cccc(F)c1CN1CCN(C(=O)[C@H](N)C2CCN(CCc3cccc4ccccc34)CC2)CC1 [Example 42],B (25 μM<EC99≤100 μM),B (25 μM<EC99≤100 μM),B (25 μM<EC99≤100 μM),S (EC99≤12.5 μM),S (EC99≤12.5 μM)
"CCOc1cccc(F)c1CN1CCN(C(=O)[C@H](N)C2CCN(CCc3cc(Cl)ccc3-c3ccccc3Cl)CC2)CC1 [Example 44, (R)-2-amino-2-(1-(2-(2′,4-dichloro-[1,1′-biphenyl]-2-yl)ethyl)piperidin-4-yl)-1-(4-(2-ethoxy-6-fluorobenzyl)piperazin-1-yl)ethan-1-one]",S (EC99≤12.5 μM),A (12.5 μM<EC99≤25 μM),S (EC99≤12.5 μM),S (EC99≤12.5 μM),S (EC99≤12.5 μM)
"CCOc1cccc(F)c1CN1CCN(C(=O)[C@H](N)C2CCN(CCc3ccccc3-c3cc(F)cc(F)c3)CC2)CC1 [Example 48, Hydrobromide of (R)-2-amino-2-(1-(2-(3′,5′-difluoro-[1,1′-biphenyl]-2-yl)ethyl)piperidin-4-yl)-1-(4-(2-ethoxy-6-fluorobenzyl)piperazin-1-yl)ethan-1-one]",B (25 μM<EC99≤100 μM),C (100 μM<EC99),B (25 μM<EC99≤100 μM),B (25 μM<EC99≤100 μM),A (12.5 μM<EC99≤25 μM)
"CCOc1cccc(F)c1CN1CCN(C(=O)[C@H](N)C2CCN(CCc3cc(F)ccc3-c3ccccc3)CC2)CC1 [Example 50, Hydrobromide of (R)-2-amino-1-(4-(2-ethoxy-6-fluorobenzyl)piperazin-1-yl)-2-(1-(2-(4-fluoro-[1,1′-biphenyl]-2-yl)ethyl)piperidin-4-yl)ethan-1-one]",B (25 μM<EC99≤100 μM),C (100 μM<EC99),B (25 μM<EC99≤100 μM),B (25 μM<EC99≤100 μM),A (12.5 μM<EC99≤25 μM)
"CCOc1cccc(F)c1CN1CCN(C(=O)[C@H](N)C2CCN(CCc3cc(OC)ccc3-c3ccccc3)CC2)CC1 [Example 51, Hydrobromide of (R)-2-amino-1-(4-(2-ethoxy-6-fluorobenzyl)piperazin-1-yl)-2-(1-(2-(4-methoxy-[1,1′-biphenyl]-2-yl)ethyl)piperidin-4-yl)ethan-1-one]",B (25 μM<EC99≤100 μM),B (25 μM<EC99≤100 μM),B (25 μM<EC99≤100 μM),A (12.5 μM<EC99≤25 μM),S (EC99≤12.5 μM)
